Measurements taken from patent US20100317624A1 (ASTRAZENECA AB, priority 2009, published 2010).

Molecular target: S. aureus GyrB ATPase (Staphylococcus aureus, UniProt P0A0K8)
Experiment: S. aureus GyrB ATPase inhibition (ammonium molybdate/malachite green phosphate detection)
Format: biochemical
Conditions: compound at 1 μM; inhibition of S. aureus GyrB ATPase; read-out: Percent Inhibition (1 μM)

S. aureus GyrB ATPase, sequence (P0AES4 whole entry): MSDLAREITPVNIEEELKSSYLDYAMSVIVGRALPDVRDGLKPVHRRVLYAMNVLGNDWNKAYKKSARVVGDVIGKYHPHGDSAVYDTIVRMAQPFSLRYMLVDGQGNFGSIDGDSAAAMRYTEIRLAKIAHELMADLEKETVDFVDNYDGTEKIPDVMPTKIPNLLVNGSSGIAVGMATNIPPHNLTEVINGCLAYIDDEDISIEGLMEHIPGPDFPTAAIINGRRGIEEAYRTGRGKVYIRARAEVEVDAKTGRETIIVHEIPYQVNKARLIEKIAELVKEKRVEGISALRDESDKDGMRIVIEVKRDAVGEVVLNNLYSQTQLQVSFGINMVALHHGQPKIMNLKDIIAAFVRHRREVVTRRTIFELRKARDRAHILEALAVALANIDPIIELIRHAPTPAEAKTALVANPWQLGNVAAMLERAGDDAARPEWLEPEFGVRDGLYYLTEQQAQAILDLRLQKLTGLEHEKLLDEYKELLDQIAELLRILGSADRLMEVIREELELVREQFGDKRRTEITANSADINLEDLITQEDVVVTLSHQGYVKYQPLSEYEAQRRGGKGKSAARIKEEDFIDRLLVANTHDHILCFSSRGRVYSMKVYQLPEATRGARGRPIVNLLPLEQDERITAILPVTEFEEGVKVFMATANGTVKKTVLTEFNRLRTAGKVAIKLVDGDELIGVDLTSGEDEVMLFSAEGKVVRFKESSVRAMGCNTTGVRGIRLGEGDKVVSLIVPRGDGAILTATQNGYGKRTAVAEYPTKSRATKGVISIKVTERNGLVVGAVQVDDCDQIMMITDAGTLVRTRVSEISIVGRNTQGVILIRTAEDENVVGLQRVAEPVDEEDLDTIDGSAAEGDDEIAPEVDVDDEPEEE
S. aureus GyrB ATPase, sequence (P0A0K8 whole entry): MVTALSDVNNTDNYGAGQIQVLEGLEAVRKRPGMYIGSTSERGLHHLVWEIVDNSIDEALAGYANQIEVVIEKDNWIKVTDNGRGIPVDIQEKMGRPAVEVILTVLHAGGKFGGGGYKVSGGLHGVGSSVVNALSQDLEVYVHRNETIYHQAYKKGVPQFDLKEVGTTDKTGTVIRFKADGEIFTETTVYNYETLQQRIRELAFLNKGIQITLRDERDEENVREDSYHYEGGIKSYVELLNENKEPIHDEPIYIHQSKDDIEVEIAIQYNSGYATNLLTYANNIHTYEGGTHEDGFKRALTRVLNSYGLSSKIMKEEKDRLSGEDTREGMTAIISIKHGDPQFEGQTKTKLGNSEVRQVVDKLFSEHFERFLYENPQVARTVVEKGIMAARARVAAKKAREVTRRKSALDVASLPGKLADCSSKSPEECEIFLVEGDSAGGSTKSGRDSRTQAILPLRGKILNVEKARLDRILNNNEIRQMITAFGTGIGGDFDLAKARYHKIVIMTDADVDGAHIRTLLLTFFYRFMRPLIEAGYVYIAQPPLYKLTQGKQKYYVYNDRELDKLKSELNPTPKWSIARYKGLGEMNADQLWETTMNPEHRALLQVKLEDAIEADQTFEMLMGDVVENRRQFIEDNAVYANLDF

| Structure (SMILES) | inhibition at 1 µM [%] |
| --- | --- |
| CCNC(=O)Nc1cc(-c2nc(C3CC3)cs2)c(-c2ccc3c(c2)c(=O)c(C(=O)O)cn3[C@H](COP(=O)(O)O)CC(C)C)cn1 [Example 12, (S)-6-(4-(4-cyclopropylthiazol-2-yl)-6-(3-ethylureido)pyridin-3-yl)-1-(4-methyl-1-(phosphonooxy)pentan-2-yl)-4-oxo-1,4-dihydroquinoline-3-carboxylic acid] | 104 |
| CCNC(=O)Nc1cc(-c2nc(-c3ccccc3)cs2)c(-c2cc3c(=O)c(C(=O)O)cn(CCN(C)C)c3cc2OCCN(C)C)cn1 [Example 24, 7-(2-(dimethylamino)ethoxy)-1-(2-(dimethylamino)ethyl)-6-(6-(3-ethylureido)-4-(4-phenylthiazol-2-yl)pyridin-3-yl)-4-oxo-1,4-dihydroquinoline-3-carboxylic acid] | 107 |
| CCNC(=O)Nc1cc(-c2nc(C(F)(F)F)cs2)c(-c2ccc3c(c2)c(=O)c(C(=O)N(C)C)cn3CCN(C)C)cn1 [Example 29, 1-[2-(Dimethylamino)ethyl]-6-{6-[(ethylcarbamoyl)amino]-4-[4-(trifluoromethyl)-1,3-thiazol-2-yl]pyridin-3-yl}-N,N-dimethyl-4-oxo-1,4-dihydroquinoline-3-carboxamide] | 93 |
| CCNC(=O)Nc1cc(-c2nc(C(F)(F)F)cs2)c(-c2ccc3c(c2)c(=O)c(C(=O)OCOC(=O)C(C)(C)C)cn3C(COC)COC)cn1 [Example 39, Pivaloyloxymethyl 1-(1,3-dimethoxypropan-2-yl)-6-(6-(3-ethylureido)-4-(4-(trifluoromethyl)thiazol-2-yl)pyridin-3-yl)-4-oxo-1,4-dihydroquinoline-3-carboxylate] | 102 |
| CCNC(=O)Nc1cc(-c2nc(C(F)(F)F)cs2)c(-c2cc3c(=O)c(C(=O)O)cn(C4CC4)c3cc2Cl)cn1 [Example 54, 7-chloro-1-cyclopropyl-6-(6-(3-ethylureido)-4-(4-(trifluoromethyl)thiazol-2-yl)pyridin-3-yl)-4-oxo-1,4-dihydroquinoline-3-carboxylic acid] | 126 |
